Data as given in ChEMBL document CHEMBL1201862, “PubChem BioAssay data set” (2004).
Calls of active or inactive are those of the source.

Legend:
[1] = target: T1, Zinc finger protein mex-5 (Caenorhabditis elegans, UniProt Q9XUB2); test: potency of MEX-5 RNA-binding blockers – biochemical, C. elegans, fluorescence polarization, dose response (AID 1960)
T1 sequence (Q9XUB2 whole entry): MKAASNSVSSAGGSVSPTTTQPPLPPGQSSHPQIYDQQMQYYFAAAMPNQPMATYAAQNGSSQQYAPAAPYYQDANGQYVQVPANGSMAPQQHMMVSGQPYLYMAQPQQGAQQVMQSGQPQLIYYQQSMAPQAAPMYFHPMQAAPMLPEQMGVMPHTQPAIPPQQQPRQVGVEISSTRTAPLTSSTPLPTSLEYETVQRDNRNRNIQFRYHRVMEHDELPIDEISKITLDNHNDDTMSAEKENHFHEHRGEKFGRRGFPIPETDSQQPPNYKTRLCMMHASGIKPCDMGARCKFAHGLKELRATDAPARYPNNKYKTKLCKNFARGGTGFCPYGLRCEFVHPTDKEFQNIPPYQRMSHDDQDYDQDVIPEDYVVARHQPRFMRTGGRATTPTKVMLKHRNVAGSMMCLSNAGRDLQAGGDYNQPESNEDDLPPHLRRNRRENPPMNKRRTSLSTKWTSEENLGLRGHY

[2] = target: T2, RNA-binding protein pos-1 (Caenorhabditis elegans, UniProt G5EF15); test: disruptors of C. elegans POS-1 RNA interaction – biochemical, fluorescence polarization, dose response (AID 1964);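 further: purified POS-1 fused to maltose binding protein made in E. coli; potency of compounds blocking POS-1 binding to fluorescent RNA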
T2 sequence (G5EF15 whole entry): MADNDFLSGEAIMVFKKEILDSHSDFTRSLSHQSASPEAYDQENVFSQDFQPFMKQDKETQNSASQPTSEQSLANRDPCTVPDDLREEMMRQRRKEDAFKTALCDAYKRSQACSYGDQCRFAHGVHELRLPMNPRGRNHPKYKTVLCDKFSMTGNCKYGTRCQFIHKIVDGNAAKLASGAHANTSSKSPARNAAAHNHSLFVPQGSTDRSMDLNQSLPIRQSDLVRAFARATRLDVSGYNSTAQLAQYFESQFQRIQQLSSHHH

cells [3] = test: cells
[4] = HGIII-sPLA2 enzyme inhibition potency – biochemical, QFRET, IC50, dose response (AID 743457);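 further: green fluorescence rise as the enzyme cleaves BODIPY PC-A2 in liposomes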
[5] = Counterscreen for […] of the human trace amine associated receptor 1 (TAAR1): Fluorescence-based cell-based high throughput dose response assay to identify nonselective Ga16 agonists.; assay type: functional
[6] = Luminescence Cell-Based Dose Confirmation to Identify Activators of 5'UTR Stem-Loop Driven Alpha-Synuclein mRNA Translation in H4 Neuroglioblastoma Cells. [Related pubchem assays: 1829 (Project Summary), 1814 (Primary HTS)]; assay type: functional
[7] = Luminescence Cell-Based Dose Response HTS to Identify Activators of Luciferase Translation or Activity in H4 […] Cells. [Related pubchem assays: 1829 (Project Summary), 1814 (Primary HTS)]; assay type: functional
H4 = test: Luminescence Cell-Based Dose Response HTS to Identify Activators of 5'UTR Stem-Loop Driven Prion Protein mRNA Translation in H4 Neuroglioblastoma Cells. [Related pubchem assays: 1829 (Project Summary), 1814 (Primary HTS)]; assay type: functional; settings: Homo sapiens
[8] = Luminescence Cell-Based Dose Response to Identify Activators of 5'UTR Stem-Loop Driven Prion Protein mRNA Translation in H4-C Neuroglioblastoma Cells. [Related pubchem assays: 1829 (Project Summary), 1814 (Primary HTS)]; assay type: functional
[9] = target: T3, Trace amine-associated receptor 1 (Homo sapiens, UniProt Q96RJ0); test: Counterscreen for antagonists of the human trace amine associated receptor 1 (hTAAR1): Fluorescence-based cell-based high throughput dose response assay to identify TAAR1 Agonists.; assay type: functional
T3 sequence (Q96RJ0 whole entry): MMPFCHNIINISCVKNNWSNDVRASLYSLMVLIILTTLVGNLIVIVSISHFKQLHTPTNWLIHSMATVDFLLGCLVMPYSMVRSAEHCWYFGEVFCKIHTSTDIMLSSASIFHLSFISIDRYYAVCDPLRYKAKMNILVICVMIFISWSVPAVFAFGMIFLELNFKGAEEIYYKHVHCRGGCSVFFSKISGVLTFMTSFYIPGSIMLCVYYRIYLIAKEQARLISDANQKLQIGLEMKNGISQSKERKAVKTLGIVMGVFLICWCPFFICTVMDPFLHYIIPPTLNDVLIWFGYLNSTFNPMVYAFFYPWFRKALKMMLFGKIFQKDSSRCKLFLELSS

[10] = Luminescence Cell-Based Dose Response to Identify Activators of Luciferase Translation or Activity in H4-C Neuroglioblastoma Cells. [Related pubchem assays: 1829 (Project Summary), 1814 (Primary HTS)]; assay type: functional
[11] = target: T3, Trace amine-associated receptor 1; test: Fluorescence-based cell-based high throughput dose response assay to identify antagonists of the human trace amine associated receptor 1 (TAAR1).; assay type: functional
[12] = Counterscreen for antagonists of the human trace amine associated receptor 1 (hTAAR1): Fluorescence-based cell-based high throughput dose response assay to identify nonselective Ga16 antagonists.; assay type: functional
[13] = target: Glucose-6-phosphate 1-dehydrogenase (Homo sapiens, UniProt P11413); test: inhibition of Homo sapiens G6PD, dose series – biochemical, fluorescence, selectivity assay for P. falciparum G6PD inhibitor project, dose response (AID 504792); assay type: functional
Sequence of Glucose-6-phosphate 1-dehydrogenase (P11413 whole entry): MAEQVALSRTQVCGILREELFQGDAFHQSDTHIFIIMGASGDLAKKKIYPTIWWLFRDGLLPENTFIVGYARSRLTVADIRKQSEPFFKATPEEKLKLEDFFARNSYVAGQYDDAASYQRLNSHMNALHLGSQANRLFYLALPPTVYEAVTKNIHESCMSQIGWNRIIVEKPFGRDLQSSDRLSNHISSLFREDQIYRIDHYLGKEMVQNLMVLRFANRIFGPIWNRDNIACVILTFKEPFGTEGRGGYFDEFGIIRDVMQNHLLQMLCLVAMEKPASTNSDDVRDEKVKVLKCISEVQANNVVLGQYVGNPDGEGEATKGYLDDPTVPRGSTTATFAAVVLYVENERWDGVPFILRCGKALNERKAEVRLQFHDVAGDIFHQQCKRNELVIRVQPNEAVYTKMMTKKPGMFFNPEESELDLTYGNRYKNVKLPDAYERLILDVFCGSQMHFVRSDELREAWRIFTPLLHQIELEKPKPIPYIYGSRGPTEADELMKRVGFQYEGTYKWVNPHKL

[14] = target: 1-phosphatidylinositol 4,5-bisphosphate phosphodiesterase gamma-1 (Homo sapiens, UniProt P19174); test: Counterscreen for inhibitors of phospholipase C isozymes (PLC-B3): Fluorescence-based biochemical high throughput dose response assay to identify inhibitors of phospholipase C isozymes (PLC-gamma1).
[15] = target: 1-phosphatidylinositol 4,5-bisphosphate phosphodiesterase beta-3 (Homo sapiens, UniProt Q01970); test: Fluorescence-based biochemical high throughput dose response assay to identify inhibitors of phospholipase C isozymes (PLC-B3).
Sequence of 1-phosphatidylinositol 4,5-bisphosphate phosphodiesterase beta-3 (Q01970 whole entry): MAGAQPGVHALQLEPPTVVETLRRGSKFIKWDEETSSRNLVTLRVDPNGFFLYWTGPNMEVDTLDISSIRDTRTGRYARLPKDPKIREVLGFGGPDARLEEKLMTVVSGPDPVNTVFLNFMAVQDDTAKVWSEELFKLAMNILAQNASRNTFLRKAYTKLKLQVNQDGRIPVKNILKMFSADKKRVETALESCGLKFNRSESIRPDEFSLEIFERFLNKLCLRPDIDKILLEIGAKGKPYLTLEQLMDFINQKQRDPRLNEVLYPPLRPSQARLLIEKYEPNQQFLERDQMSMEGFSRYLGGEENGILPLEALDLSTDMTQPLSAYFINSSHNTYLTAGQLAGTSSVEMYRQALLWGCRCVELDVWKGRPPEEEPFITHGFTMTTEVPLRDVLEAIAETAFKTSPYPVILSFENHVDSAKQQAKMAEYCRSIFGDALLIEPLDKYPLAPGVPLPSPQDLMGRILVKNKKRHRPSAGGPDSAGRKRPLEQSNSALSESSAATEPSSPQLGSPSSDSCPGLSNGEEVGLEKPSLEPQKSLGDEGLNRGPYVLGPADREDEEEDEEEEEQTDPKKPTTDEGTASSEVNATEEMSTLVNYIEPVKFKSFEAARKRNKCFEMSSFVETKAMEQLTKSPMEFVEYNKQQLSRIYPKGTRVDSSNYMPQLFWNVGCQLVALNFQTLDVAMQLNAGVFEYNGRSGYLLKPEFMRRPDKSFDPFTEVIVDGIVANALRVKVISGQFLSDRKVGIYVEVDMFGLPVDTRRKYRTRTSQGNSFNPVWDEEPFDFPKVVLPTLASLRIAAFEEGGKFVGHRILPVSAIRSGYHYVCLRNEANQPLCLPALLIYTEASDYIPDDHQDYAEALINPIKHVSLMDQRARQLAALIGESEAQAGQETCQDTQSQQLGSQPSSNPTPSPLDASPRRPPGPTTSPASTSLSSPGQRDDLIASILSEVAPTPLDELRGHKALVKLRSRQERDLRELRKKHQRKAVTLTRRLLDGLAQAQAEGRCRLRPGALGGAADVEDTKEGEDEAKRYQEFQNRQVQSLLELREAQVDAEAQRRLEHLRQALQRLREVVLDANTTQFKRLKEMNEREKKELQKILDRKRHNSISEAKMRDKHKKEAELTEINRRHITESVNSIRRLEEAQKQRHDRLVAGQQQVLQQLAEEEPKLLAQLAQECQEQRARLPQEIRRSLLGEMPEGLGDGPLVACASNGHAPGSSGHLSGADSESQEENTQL

[16] = inhibition of ADAM10 peptide cleavage – biochemical, FRET peptide substrate, recombinant human ADAM10, selectivity assay for ADAM17 exosite inhibitor project, dose response (AID 743259);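 further: ADAM10 enzyme cleaving a FRET peptide substrate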
[17] = target: Disintegrin and metalloproteinase domain-containing protein 17 (Homo sapiens, UniProt P78536); test: exosite inhibitors of ADAM17, dose response, biochemical (AID 743260)
Sequence of Disintegrin and metalloproteinase domain-containing protein 17 (P78536 whole entry, the tested form may be a part): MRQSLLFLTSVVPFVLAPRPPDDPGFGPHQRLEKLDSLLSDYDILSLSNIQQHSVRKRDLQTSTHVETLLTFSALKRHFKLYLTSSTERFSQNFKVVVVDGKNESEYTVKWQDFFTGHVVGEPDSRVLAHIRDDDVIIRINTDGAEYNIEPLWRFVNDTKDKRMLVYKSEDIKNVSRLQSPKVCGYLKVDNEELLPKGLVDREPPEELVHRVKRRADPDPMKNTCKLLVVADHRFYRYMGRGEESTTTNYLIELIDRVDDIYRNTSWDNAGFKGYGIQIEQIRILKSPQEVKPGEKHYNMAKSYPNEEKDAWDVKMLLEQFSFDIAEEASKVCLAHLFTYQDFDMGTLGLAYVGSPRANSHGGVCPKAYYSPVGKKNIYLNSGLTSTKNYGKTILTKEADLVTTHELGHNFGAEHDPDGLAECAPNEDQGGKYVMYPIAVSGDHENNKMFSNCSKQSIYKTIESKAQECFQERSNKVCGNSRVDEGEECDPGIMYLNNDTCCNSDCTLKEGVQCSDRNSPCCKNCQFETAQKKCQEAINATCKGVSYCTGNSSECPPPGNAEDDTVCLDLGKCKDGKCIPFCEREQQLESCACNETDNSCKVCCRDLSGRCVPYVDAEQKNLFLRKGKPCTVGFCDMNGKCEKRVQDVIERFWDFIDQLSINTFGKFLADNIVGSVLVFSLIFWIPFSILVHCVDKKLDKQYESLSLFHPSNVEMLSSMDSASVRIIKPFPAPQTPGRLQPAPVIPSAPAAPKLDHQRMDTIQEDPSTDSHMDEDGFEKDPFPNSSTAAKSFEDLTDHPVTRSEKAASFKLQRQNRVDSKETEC

[18] = target: T4, DNA repair and recombination protein RAD54-like (Homo sapiens, UniProt Q92698); test: RAD54 Holliday junction migration blockers – biochemical, fluorescence, cherry-picked samples, dose series, confirmation (AID 651657); assay type: functional
T4 sequence (Q92698 whole entry): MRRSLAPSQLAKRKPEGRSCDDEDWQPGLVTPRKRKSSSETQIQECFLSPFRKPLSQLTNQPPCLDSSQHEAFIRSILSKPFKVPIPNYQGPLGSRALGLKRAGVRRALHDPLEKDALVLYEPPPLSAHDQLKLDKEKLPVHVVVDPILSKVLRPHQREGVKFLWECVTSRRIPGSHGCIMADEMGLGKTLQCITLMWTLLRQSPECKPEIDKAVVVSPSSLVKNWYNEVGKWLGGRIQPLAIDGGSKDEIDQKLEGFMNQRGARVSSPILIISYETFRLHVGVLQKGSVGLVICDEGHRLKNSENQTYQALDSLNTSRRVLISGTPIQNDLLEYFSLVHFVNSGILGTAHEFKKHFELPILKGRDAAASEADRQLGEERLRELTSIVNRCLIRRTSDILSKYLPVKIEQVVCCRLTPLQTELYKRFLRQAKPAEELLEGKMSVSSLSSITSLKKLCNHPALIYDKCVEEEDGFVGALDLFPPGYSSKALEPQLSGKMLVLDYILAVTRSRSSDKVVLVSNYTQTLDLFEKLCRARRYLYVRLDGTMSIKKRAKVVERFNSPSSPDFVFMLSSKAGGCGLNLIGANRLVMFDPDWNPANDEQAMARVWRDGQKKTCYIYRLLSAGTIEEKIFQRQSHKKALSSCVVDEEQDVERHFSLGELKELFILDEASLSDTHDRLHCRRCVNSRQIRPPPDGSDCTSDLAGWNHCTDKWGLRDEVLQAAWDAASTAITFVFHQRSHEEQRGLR

cells [19] = settings: A549
[20] = OVCAR8 cell viability loss – plate reader, dry powder samples, PAX8 project, dose response (AID 743197); assay type: functional, cell-based; settings: OVCAR-8
Paired box protein Pax-8 = Paired box protein Pax-8 (Homo sapiens, UniProt Q06710); test: PAX8 transcriptional activity inhibition in RMG-I – RMG-I cells, luciferase, cherry-pick, dose response (AID 687027); assay type: functional, cell-based;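 further: luciferase reporter driven by Pax8 target thyroperoxidase promoter measured by SteadyGlo luminescence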
Sequence of Paired box protein Pax-8 (Q06710 whole entry): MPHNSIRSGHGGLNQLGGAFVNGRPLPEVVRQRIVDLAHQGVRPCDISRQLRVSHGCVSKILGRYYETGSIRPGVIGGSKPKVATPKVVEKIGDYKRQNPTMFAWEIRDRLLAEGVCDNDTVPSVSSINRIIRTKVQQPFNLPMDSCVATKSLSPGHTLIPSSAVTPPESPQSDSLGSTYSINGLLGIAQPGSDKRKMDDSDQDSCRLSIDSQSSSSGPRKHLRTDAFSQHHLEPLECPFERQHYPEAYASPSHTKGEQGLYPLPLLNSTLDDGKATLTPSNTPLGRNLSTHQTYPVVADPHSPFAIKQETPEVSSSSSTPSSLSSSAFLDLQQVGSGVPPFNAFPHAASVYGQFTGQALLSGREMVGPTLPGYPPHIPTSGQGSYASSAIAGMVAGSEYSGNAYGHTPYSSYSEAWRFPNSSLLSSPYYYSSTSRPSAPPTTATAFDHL

[21] = general cell-killing toxicity readout – plate reader, dry powder samples, cytotoxicity control for PAX8 inhibitor project, dose response (AID 743021); assay type: functional, cell-based
[22] = OVCAR-3 cell viability loss – plate reader, dry powder samples, PAX8 inhibitor project, dose response (AID 743044); assay type: functional, cell-based
[23] = toxicity toward immortalized ovarian surface epithelium – cell-based, plate reader, dry powder samples, cytotoxicity control for PAX8 inhibitor project, dose response (AID 743045); assay type: functional
[24] = IGROV1 cell killing – plate reader, dry powder samples, PAX8 inhibitor project, dose response (AID 743043); assay type: functional, cell-based; settings: IGROV-1
[25] = target: Metabotropic glutamate receptor 3 (Rattus norvegicus, UniProt P31422); test: inhibitors of rat mGlu3 Galpha15 signaling – TREx293 cells, calcium flux, mGlu3 NAM project, dose response (AID 651840); assay type: functional
Sequence of Metabotropic glutamate receptor 3 (P31422 whole entry): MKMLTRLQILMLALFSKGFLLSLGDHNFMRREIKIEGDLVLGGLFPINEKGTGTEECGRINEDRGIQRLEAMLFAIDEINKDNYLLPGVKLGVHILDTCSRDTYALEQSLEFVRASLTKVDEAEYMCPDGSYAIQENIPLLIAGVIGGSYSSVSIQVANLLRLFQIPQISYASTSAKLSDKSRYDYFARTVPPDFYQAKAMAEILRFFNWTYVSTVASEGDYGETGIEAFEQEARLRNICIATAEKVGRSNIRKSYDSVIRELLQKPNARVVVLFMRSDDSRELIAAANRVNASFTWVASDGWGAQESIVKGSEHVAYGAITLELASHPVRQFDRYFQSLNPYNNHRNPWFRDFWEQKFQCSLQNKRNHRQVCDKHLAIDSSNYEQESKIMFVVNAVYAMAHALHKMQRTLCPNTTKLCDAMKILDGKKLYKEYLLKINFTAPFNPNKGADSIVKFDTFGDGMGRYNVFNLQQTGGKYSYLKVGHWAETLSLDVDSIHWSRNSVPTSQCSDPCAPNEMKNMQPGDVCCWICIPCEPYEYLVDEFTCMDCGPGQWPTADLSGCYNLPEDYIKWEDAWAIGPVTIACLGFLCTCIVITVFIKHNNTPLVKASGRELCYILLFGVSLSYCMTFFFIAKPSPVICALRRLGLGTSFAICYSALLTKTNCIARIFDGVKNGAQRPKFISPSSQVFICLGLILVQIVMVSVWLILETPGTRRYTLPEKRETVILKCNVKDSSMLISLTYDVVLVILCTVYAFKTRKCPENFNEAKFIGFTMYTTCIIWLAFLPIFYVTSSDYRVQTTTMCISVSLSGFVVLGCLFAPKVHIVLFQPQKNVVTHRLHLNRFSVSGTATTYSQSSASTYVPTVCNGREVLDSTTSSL

[26] = P. falciparum Dd2 growth inhibitors, dose response, SYBR Green, cherry-picked samples (AID 1159567); assay type: functional, cell-based
[27] = toxicity to human hepatoma HepG2 cells – cell-based, cherry-picked samples, cytotoxicity control, dose response (AID 1159577); assay type: functional
[28] = HepG2 cell viability loss – cherry-picked samples, cytotoxicity control, dose response (AID 1053183); assay type: functional, cell-based
[29] = blockers of FN fibrillogenesis by fibroblasts – AH1F cells, Alexa488-FN fluorescence, cherry-picks, dose response (AID 1035475); assay type: functional, cell-based
[30] = viability loss in A549 lung cancer cells – cell-based, cherry-picks, […], cytotoxicity control, dose response (AID 1053119); assay type: functional
[31] = viability loss in HEK293T cells – cell-based, CellTiter-Glo luminescence, dry powder, set 6, cytotoxicity control, dose response (AID 651949); assay type: functional; settings: HEK293
[32] = A Cell-Based Confirmatory Screen for Compounds that Inhibit VEEV, TC-83 (8).; assay type: functional
[33] = A Cell-Based Confirmatory Screen for Compounds that Inhibit VEEV, TC-83 (6).; assay type: functional
[34] = target: Potassium channel subfamily K member 3 (Homo sapiens, UniProt O14649); test: inhibition of human KCNK3 channel flux – CHO cells, FluxOR thallium flux, SAR follow-up (AID 652212); assay type: functional
Sequence of Potassium channel subfamily K member 3 (O14649 whole entry): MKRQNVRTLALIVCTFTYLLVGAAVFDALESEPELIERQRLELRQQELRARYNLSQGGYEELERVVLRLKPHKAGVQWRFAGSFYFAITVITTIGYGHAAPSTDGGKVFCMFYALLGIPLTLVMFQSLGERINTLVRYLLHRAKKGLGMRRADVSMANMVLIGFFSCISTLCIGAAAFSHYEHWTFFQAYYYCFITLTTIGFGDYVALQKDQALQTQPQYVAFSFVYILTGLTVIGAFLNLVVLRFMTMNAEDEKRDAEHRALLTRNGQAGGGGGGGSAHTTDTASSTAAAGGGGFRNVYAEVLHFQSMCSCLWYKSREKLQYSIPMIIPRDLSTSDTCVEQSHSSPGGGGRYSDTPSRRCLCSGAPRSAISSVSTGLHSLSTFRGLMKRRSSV

[35] = target: Potassium channel subfamily K member 9 (Homo sapiens, UniProt Q9NPC2); test: KCNK9 flux blockade, concentration-response – cell-based, FluxOR thallium flux, selectivity assay for TASK1 inhibitor project, SAR follow-up (AID 652211); assay type: functional;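 further: potency is for inhibitors of the channel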
Sequence of Potassium channel subfamily K member 9 (Q9NPC2 whole entry): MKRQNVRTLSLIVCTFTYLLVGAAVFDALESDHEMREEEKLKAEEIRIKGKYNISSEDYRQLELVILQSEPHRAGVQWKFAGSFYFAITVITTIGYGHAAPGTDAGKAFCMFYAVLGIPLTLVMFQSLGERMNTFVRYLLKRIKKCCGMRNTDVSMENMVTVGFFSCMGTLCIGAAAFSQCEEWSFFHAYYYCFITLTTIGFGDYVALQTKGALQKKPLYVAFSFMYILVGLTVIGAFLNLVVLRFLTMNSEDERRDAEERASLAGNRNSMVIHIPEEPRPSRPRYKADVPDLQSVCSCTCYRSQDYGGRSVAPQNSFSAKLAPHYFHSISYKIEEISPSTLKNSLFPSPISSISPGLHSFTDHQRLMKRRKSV

[36] = Late stage assay provider results from the probe development effort to identify inhibitors of the Plasmodium falciparum M18 Aspartyl Aminopeptidase (M18AAP): radiolabel-based cell-based dose response assay to identify compounds that inhibit P. falciparum growth in RBCs, Set 2..; assay type: functional

CCn1c(=N)c(S(=O)(=O)c2ccccc2)cc2c(=O)n3ccccc3nc21
EC50 [1]: > 300 µM (not active)
EC50 [2]: > 300 µM (not active)
AC50 (cells [3]): 1.01 µM (active)

CCCCCC(=O)NNC(=S)NC(=O)c1ccccc1[N+](=O)[O-]
IC50 [4]: > 122 µM (inactive)

Cc1cc(/C=C(\C#N)C(=O)NCc2cccs2)c(C)n1-c1ccccc1F
EC50 [5]: > 29.9 µM (inactive)
EC50 [6]: 0.472 µM (active)
EC50 [7]: < 0.1 µM (active)
EC50 (H4): 61 µM (active)
EC50 [8]: 0.952 µM (active)
EC50 [9]: > 29.9 µM (inactive)
EC50 [10]: 0.225 µM (active)
IC50 [11]: 3.75 µM (active)
IC50 [12]: > 29.9 µM (inactive)

Cn1cc(S(=O)(=O)CC(=O)N2CCc3ccccc32)c2ccccc21
IC50 [13]: > 80 µM (inactive)
IC50 [14]: > 122 µM (inactive)
IC50 [15]: > 122 µM (inactive)

COC(=O)c1c(C)n(-c2ccc(OC)cc2)c2ccc(O)cc12
IC50 [16]: > 69.5 µM (inactive)
IC50 [17]: > 69.5 µM (inactive)

Cc1nc2ccccc2c2oc(C(=O)NCCCN3CCC(C)CC3)cc12
AC50 [18]: 36.5 µM (active)
AC50 (cells [19]): > 52 µM (inactive)

C[C@@H]1CN([C@H](C)CO)C(=O)c2cc(NS(=O)(=O)c3ccc(F)cc3)ccc2O[C@@H](C)CCCCO[C@@H]1CN(C)Cc1ccccc1
AC50 [20]: 39.4 µM (active)
AC50 (Paired box protein Pax-8): 7.31 µM (active)
AC50 [21]: 2.88 µM (active)
AC50 [22]: 21.1 µM (active)

C[C@@H]1CN([C@H](C)CO)C(=O)c2cc(NC(=O)Nc3ccccc3)ccc2O[C@@H](C)CCCCO[C@H]1CN(C)Cc1ccc(C(F)(F)F)cc1
AC50 [23]: 31.7 µM (active)
AC50 (Paired box protein Pax-8): 10.9 µM (active)
AC50 [24]: 36.2 µM (active)
AC50 [22]: 24.2 µM (active)

COc1ccc(C#Cc2ccc(C(=O)N3CCC[C@@H](O)C3)cc2F)cc1
IC50 [25]: 0.402 µM

COc1cc(CN2C[C@@H]3N[C@H](C2)[C@H]3c2ccc(-c3ccc(C#N)cc3)cc2)cc(OC)c1
AC50 [26]: 1.33 µM (active)
AC50 [27]: 8.15 µM (active)
AC50 [28]: 24.3 µM (active)

CC(C)(C)[S@+]([O-])N1Cc2cc(C(=O)NCc3ccccc3F)nc(-c3cccc(-c4cncnc4)c3)c2[C@@H]1CCO
AC50 [29]: 50.8 µM (active)
AC50 [30]: > 52 µM (inactive)

COc1ccc(-c2nnc(SCc3ccc(Cl)cc3)o2)cc1
AC50 [31]: > 52 µM (inactive)

O=c1c2cc([N+](=O)[O-])ccc2nc(CN2CCNCC2)n1-c1ccsc1
IC50 [32]: 1.74 µM (active)
IC50 [33]: 1.74 µM (active)

COc1ccccc1NC(=O)c1cccc(NC(=O)C2CCCCC2)c1
IC50 [34]: 0.086 µM (active)
IC50 [35]: 2.16 µM (active)

Oc1ccc(C2CCCN(c3ccnc4ccccc34)C2)cc1O (stereo not given)
IC50 [36]: 4.2 µM (active)
